Laboratory results published in patent US12295919B2, “Methods of treatment and prevention using 4-deoxy-L-erythro-5-hexoseulose uronic acid” (MIE UNIVERSITY, priority 2022, dated 2025).

Key:
Caco-2 cell monolayer = test: Membrane permeability using Caco-2 cell monolayer; type: in vitro ADME, human
Description: When Caco-2 cells (human colon cancer-derived cell line) are cultured in a monolayer on a porous membrane filter, they differentiate into intestinal epithelium-like cells. Owing to the differentiation, they express brush borders and tight junctions similar to columnar epithelial cells of the small intestine, as well as metabolic enzymes and transporters present in the human small intestine. Therefore, the Caco-2 cell monolayer is widely used as a model to predict absorption from the intestinal tract.
Using the Caco-2 cell monolayer, the membrane permeability of DEH was confirmed.
Next, using the model apparatuses shown in FIGS. 2A-2B, the electrical resistance value (transepithelial electrical resistance (TEER) value) using an electrical resistance system (voltohmmeter) sold under the trademark MILLICELL™ ESR-2 (FIG. 2A) and permeability using Lucifer Yellow (FIG. 2B) were measured to confirm that a single layer film was formed. The single layer films, in which the TEER value was more than 300 Ω·cm2 and the permeability of Lucifer yellow was 0.3% to 2%, were used in the test.
Permeability (absorption) of substances, which were added to the apical (AP: apical, luminal) side, to the basolateral (BL) side, or permeability (excretion) of substances, which were added to the BL side, to the AP side was evaluated.
An ER value of less than 2 means absorption from the intestinal tract, and an ER value of 2 or more means excretion from the intestinal tract.

[1] = tested on: blood-brain barrier in vitro reconstitution system model (RBT-24H); test: BBB permeability using rat-type BBB kit (RBT-24H); type: in vitro ADME, Wistar rat
Description: Next, DEH permeability was evaluated using a commercially available BBB kit (blood-brain barrier in vitro reconstitution system model (RBT-24H: PharmaCo-Cell Company Ltd.)). This kit uses endothelial cells, pericytes and astrocytes of Wistar rat origin. The above-mentioned SIM measurement of LC/MS was used in the detection and quantification of DEH. A 1000 μg/mL DEH solution was added to the blood vessel side, and after 30 minutes, culture medium on the brain parenchyma side was collected. Then, the DEH concentration in the collected culture medium was measured.
A summary of data, which examined permeability subgroups that migrate into the brain for various compounds, are shown in Table 3.

PC-12 cells = test: Neurite outgrowth activity using PC-12 cells; type: cell-based, rat
Description: Next, the characteristics of DEH were investigated using PC-12 cells. PC-12 cells are cells that were isolated from rat adrenal medullary pheochromocytoma and established as a strain. Nerve growth factor (NGF) is not needed for survival of PC-12 cells, but proliferation is arrested, nerve fibers elongate, and sympathetic ganglion neuron-like properties develop by using NGF. Owing to these properties, PC-12 cells have been used as a model for neural differentiation.
PC-12 cells were cultured and divided into 8 subgroups: no addition (Control), DEH addition (10, 50, 100 μM), NGF addition, NGF addition+DEH addition (10, 50, 100 μM), and elongation of neurite formation was observed. ImageJ software was used to measure neurite length. FIGS. 5A-5C show photographs of cells observed under a microscope; in FIG. 6 the neurite length (μm) of each subgroup is shown. Each data is shown as mean±standard error of triplicate tests. Statistical analysis was performed using the t-test, and a significance level of less than 5% (p<0.05) was considered significant.
NGF addition+DEH addition (50, 60, 70, 80, 90, 100 μM) was divided into 6 subgroups, and the elongation and number of neurites were observed and are shown in FIGS. 7 and 8. Each data is shown as mean±standard error of triplicate tests.

[2] = tested on: human iPS cell-derived intestinal epithelial cells; test: Membrane permeability using human iPS cell-derived intestinal epithelial monolayer; type: in vitro ADME
Description: The permeability of DEH through membrane was confirmed using human iPS cells. […] Therefore, results closer to the human body can be obtained using iPS cell-derived intestinal epithelial cells as compared to those using the Caco-2 cell model test.
Using a CO2 incubator (37° C., 5% CO2), human iPS cell-derived intestinal epithelial cells were cultured for 13 to 20 days to prepare a monolayer.
The membrane permeability of the human iPS cell-derived intestinal epithelial monolayer membrane was evaluated by the method described above in <Test 1> using an electrical resistance system (voltohmmeter) sold under the trademark MILLICELL™ ESR-2. Monolayer films, in which the TEER value was more […], were used in the test.
Permeability (absorption) of substances, which were added to the AP side, to the BL side, or permeability (excretion) of substances, which were added to the BL side, to the AP side was evaluated. The above-mentioned SIM measurement of LC/MS was used in the detection and quantification of DEH.

[3] = tested on: blood-brain barrier in vitro reconstitution system model (MBT-24H); test: BBB permeability using cynomolgus monkey-type BBB kit (MBT-24H); type: in vitro ADME
Description: The permeability of DEH was evaluated using a commercially available BBB kit (blood-brain barrier in vitro reconstitution system model (MBT-24H: PharmaCo-Cell Company, Ltd.)). The kit uses cynomolgus monkey-derived cells as endothelial cells. The permeability of DEH was evaluated using this model.
The reconstituted cynomolgus monkey BBB model has a structure closer to that of human BBB as compared to that of the kit in <Test 2>, so it was considered to be a better model for evaluating whether DEH permeates the human BBB.
After the test, the DEH concentration on the brain parenchyma side was obtained, and the DEH permeability was calculated.

C. elegans strain HA759 = test: Inhibitory effect on neuronal death in PolyQ disease model; type: in vivo; details: 120 hours after start of culturing
Description: The effect of DEH on neuronal death of the C. elegans strain HA759, which is a PolyQ disease model, was also investigated. HA759 strain (rtIs11 [osm-10p:: GFP+osm−10p: HtnQ150+dpy−20 (+)]) is a C. elegans strain which expresses Htn-Q150 (human huntingtin) and the fluorescent protein GFP downstream of the osm-10 gene when it receives a signal from ASH neurons. In accordance with the duration of the culture time, HA759 causes death of ASH neurons due to progressive neurodegeneration owing to accumulation of PolyQ.
Age-synchronized HA759 strain was cultured using mNGM medium. Control (DEH−), 25 mM DEH and 50 mM DEH were used as evaluation groups (samples). E. coli OP50-1 was used as nematode food.
Ten nematodes each were observed under a microscope immediately after the start of culture of the HA759 strain and after 24, 48, 72, and 120 hours to confirm whether nerve cells were alive or dead (n=30).
Each data is shown as mean±standard error. […] Thus, DEH inhibited, in a dose-dependent manner, PolyQ-induced neuronal death in the HA759 strain. Because DEH suppresses (reduces) PolyQ aggregation and neuronal cell death, DEH can treat and/or prevent symptoms of PolyQ disease, such as involuntary movement and dementia.

DAF-16 = test: Expression and activation (nuclear localization) of DAF-16; type: in vivo, C. elegans; details: 72 hours at 20° C.; for nuclear localization rate of DAF-16: TJ356 strain (Control 2.2%); for intermediate localization rate of DAF-16: TJ356 strain (Control 24.4%)
Description: The FOXO gene daf-16 is one of the components of the insulin/IGF-1 signaling pathway that controls many biological processes such as lifespan, metabolism, and stress response. When DAF-16 is localized in the nucleus, it activates the transcription of numerous genes involved in the regulation of stress tolerance promotion and pathogen protection. Therefore, the involvement of DEH in the activation of daf-16 was examined using the C. elegans TJ356 strain.
The TJ356 strain (zls356 [daf-16p::daf-16a/b::GFP+rol-6 (su1006)]) is a nematode, in which a fluorescent protein GFP has been inserted into the daf-16 promoter, and nuclear translocation by daf-16 gene activation can be observed by fluorescence of the GFP.
Age-synchronized TJ356 strain was cultured using mNGM medium at 20° C. for 72 hours. As evaluation groups (samples), positive control (group heat-treated at 37° C. for 30 minutes after 72-hour culture), control (DEH−), 25 mM DEH and 50 mM DEH were used. E. coli OP50-1 was used as nematode food.
After culturing the TJ356 strain, 15 nematodes in each group were observed under a microscope to confirm the presence or absence of nuclear localization of the DAF-16 protein (GFP fluorescence) (n=60).
Each data is shown as mean±standard error. […] Thus, DEH increased the nuclear localization ratio of DAF-16 as compared to the Control.

[4] = human iPS cell-derived intestinal epithelial monolayer, mean ± s.e.
[5] = cynomolgus monkey BBB kit, mean ± s.e.

O=C[C@@H](O)[C@@H](O)CC(=O)C(=O)O [DEH, 4-deoxy-L-erythro-5-hexoseulose uronic acid]
Absorption category (Caco-2 cell monolayer; Caco-2 Papp compared with Table 2): moderate
Papp AP to BL (Caco-2 cell monolayer; Caco-2 monolayer, absorption direction, mean ± s.e.): 5.13 ± 0.22 ×10^−6 cm/s
Papp BL to AP (Caco-2 cell monolayer; Caco-2 monolayer, excretion direction, mean ± s.e.): 2.78 ± 0.12 ×10^−6 cm/s
ER (B→A/A→B) (Caco-2 cell monolayer; Caco-2 monolayer, ER less than 2 means absorption from the intestinal tract): 0.542
Papp (DEH permeability, blood vessel side to brain parenchyma side) ([1]; 1000 μg/mL DEH, 30 minutes): 14.62±6.86 ×10^−6 cm/s
Permeability category ([1]; Papp compared with Table 3): good (10~20)
neurite outgrowth, DEH alone (PC-12 cells; DEH 10, 50, 100 μM without NGF): did not induce neurite outgrowth
optimum concentration (maximum neurite elongation and number) (PC-12 cells; NGF + DEH 50-100 μM): 70 µM
promotion of the function of NGF (neurite length) (PC-12 cells; NGF addition + DEH addition, p<0.05 vs NGF): significantly (p<0.05) promote the function of NGF
Efflux ratio (ER) (B-A/A-B) ([2]; human iPS cell-derived intestinal epithelial monolayer): 0.907
Papp AP to BL [2, 4]: 8.78 ± 1.49 ×10^−6 cm/s
Papp BL to AP [2, 4]: 7.97 ± 1.26 ×10^−6 cm/s
Absorption category ([2]; iPS-derived monolayer Papp compared with Table 2): moderate
Efflux ratio (ER) (B-A/A-B) ([3]; cynomolgus monkey BBB kit): 0.766
Papp Blood side (A) to Brain side (B) [3, 5]: 2.88 ± 0.24 ×10^−6 cm/s
Papp Brain side (B) to Blood side (A) [3, 5]: 2.20 ± 0.55 ×10^−6 cm/s
Permeability category ([3]; monkey BBB kit, Papp compared with Table 3): low (2~10)
neuronal death suppressed (decreased) as compared to the Control (C. elegans strain HA759; 25 mM DEH): 20.3%
neuronal death suppressed (decreased) as compared to the Control (C. elegans strain HA759; 50 mM DEH): 46.4%
nuclear localization rate of DAF-16 (DAF-16; 25 mM DEH): 40.0%
intermediate localization rate of DAF-16 (DAF-16; 25 mM DEH): 35.6%
nuclear localization rate of DAF-16 (DAF-16; 50 mM DEH): 51.1%
intermediate localization rate of DAF-16 (DAF-16; 50 mM DEH): 31.1%
